Source: article PMC4493059, “The Crystal Structure of Thermotoga maritima Class III Ribonucleotide Reductase Lacks a Radical Cysteine Pre-Positioned in the Active Site” (PLoS ONE, 2015)
One block for each compound: values may come before it.

Legend:
[1] = biological target: anaerobic (class III) ribonucleotide reductase from Thermotoga maritima (Thermotoga maritima); experiment: crystal structure; tmNrdD dimer in the asymmetric unit, space group P2_(1); apo forms with glycerol, MES or citrate in the active site, and complexes with dATP or dATP/CTP; resolutions from 2.4 Å to 1.92 Å
tmNrdD = biological target: T1, tmNrdD (Thermotoga maritima, UniProt Q9WYL6); experiment: X-ray crystallography; format: binding
T1 construct: gene TM_0385; recombinant in E. coli, homodimer; residues to 651, Gly621 radical site
T1 sequence (Q9WYL6 entry or part of it): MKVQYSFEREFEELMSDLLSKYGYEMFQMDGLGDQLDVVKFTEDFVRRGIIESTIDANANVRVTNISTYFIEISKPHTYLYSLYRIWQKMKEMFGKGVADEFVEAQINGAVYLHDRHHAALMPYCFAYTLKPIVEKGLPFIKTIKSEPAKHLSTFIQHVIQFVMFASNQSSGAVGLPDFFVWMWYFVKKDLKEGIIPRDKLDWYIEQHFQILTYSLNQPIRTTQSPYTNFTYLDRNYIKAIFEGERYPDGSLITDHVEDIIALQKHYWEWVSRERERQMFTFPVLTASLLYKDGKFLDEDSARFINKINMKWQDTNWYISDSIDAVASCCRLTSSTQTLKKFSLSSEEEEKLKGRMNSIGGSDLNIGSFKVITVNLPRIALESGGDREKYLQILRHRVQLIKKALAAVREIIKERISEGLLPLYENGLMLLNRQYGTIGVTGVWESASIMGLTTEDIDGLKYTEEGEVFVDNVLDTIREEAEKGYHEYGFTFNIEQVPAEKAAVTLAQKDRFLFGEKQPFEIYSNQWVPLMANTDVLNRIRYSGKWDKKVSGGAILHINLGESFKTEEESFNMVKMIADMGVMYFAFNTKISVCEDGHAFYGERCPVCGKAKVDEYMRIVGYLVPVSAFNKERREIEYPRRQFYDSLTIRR

stoichiometry N [1]: 2
Compound: anaerobic (class III) ribonucleotide reductase from Thermotoga maritima (enzyme)

Compound: Nc1ccn([C@@H]2O[C@H](COP(=O)(O)OP(=O)(O)OP(=O)(O)O)[C@@H](O)[C@H]2O)c(=O)n1 [CTP]
X-ray crystallography (tmNrdD; active site, with effector dATP, soak or co-crystal 2 mM CTP, also reduced to dCTP in assay with MBP-tmNrdG and T. maritima cell extract): represents the first structure of an anaerobic, class III RNR with a substrate

Compound: Nc1ncnc2c1ncn2[C@H]1C[C@H](O)[C@@H](COP(=O)(O)OP(=O)(O)OP(=O)(O)O)O1 [dATP]
X-ray crystallography (tmNrdD; allosteric specificity effector site at dimer interface, Mg2+ (Mn2+ substituted), dATP alone 4COL, also with CTP 4COJ, soak or co-crystal 0.5 mM dATP): The effector dATP binds at the dimer interface, along the length of helices αA and αB
